From patent US11541056B2, “3-hydroxy-N-(3-(7H-pyrrolo[2,3-d]pyrimidin-4-yl)phenyl)pyrrolidine-1-carboxamide derivatives” (NOVARTIS AG, priority 2018, dated 2023)

Experiments:
Type in all cases: cell-based
OCI-LY3 cells = assay: Resazurin cell viability assay in DLBCL cells (OCI-LY3); conditions: Homo sapiens, OCI-Ly3, 72 h, OCI-LY3 cells (BTK independent), 50% growth inhibition, read-out: OCI-LY3 Prol GI50
Method: (§1) Compounds of the invention were tested in the following cellular assays. The terms in Table 1 are defined as follows: DC50 refers to the concentration at which 50% maximal degradation was observed; deg Amax is the extent of degradation and the value refers to the % protein remaining at the concentration at which maximum degradation is seen; Prol GI50 refers to the proliferation data and defines the concentration at which 50% growth inhibition was observed compared to the vehicle treated control at the end of the incubation time. TMD8 cells are BTK dependent and OCI-LY3 cells are BTK independent.
(§2) Cell Viability Assay in DLBCL (Diffuse Large B-Cell Lymphoma) Cells:
(§3) The effect of the BTK compounds on cell proliferation was measured by a Resazurin (Sigma, #R7017) based cell viability assay. TMD8 (BTK compound sensitive) and OCI-LY3 (BTK compound insensitive) cells were incubated for 72 h at 37° C. and 5% CO2 with the corresponding compound. Resazurin is a non-toxic, cell-permeable substrate that is virtually non-fluorescent. Upon entering living cells, Resazurin (Sigma, #R7017) is reduced to highly fluorescent Resorufin. The metabolic activity was assessed by measuring the fluorescence signal (ex. 530 nm; em. 600 nm).
(§4) TMD8 and OCI-Ly3 cells were seeded at day 0 in triplicates at a cell density of 1×10^4 cells per 150 μl/well in a 96-well plate (Costar #3904). Additional plates were prepared, in order to assess the basal metabolic activity of both cell lines at the beginning of the experiment. For these reference plates, Resazurin (Sigma, #R7017) was added to a final concentration of 13 μg/ml 3 h post seeding and was incubated for 2 h at 37° C. and 5% CO2. Following incubation, the fluorescent signal intensity of the 96-well plates was measured on a Mithras LB940 multimode plate reader at 530/600 nm (Berthold Technologies, Germany).
(§5) In parallel, 3 h post-seeding, test-plates were treated with compound at various concentrations, or with vehicle (DMSO) alone for 3 days. The compound addition to the plates was performed by using a HP D300 digital dispenser (TECAN, Switzerland). The compounds were tested in triplicate, 8-point serial dilution (1:4), with a start concentration of 10 μM for OCI-LY3 and 1 μM for the TMD8 cells, respectively. To assess the relative proliferation of the cells, Resazurin was added to each well directly to the medium to a final concentration of 13 μg/ml. The plates were incubated for 2 h at 37° C. and 5% CO2 to result in a 72 h endpoint. Following incubation, the fluorescent signal intensity of the 96-well plates were measured on a Mithras LB940 multimode plate reader at 530/600 nm (Berthold Technologies, Germany). The formation of Resorufin dye directly correlates with the number of metabolically active cells. For each triplicate treatment the mean and standard deviation were calculated and analyzed via curve fitting software to determine the respective compound concentration resulting in 50% growth inhibition (GI50) values. For each compound GI50 values were typically determined from at least 2 entirely independent experiments.
OCI-LY3 cells were acquired through a license agreement with University Health Network, Toronto, Canada. Cells are cultivated in RPMI1640 media (Gibco, #61870-010, lot. 1894759), supplemented with 10% FCS (HyClone, GE #SH30066.03, lot AB217603), 2 mM L-Glutamine (BioConcept, #5-10K50-H, lot. LA03467P), 1 mM Sodium Pyruvate (BioConcept, #5-60F00-H, lot. LB10510P), 10 mM HEPES (Gibco, #15630-056, lot. 1854074), 1% Pen/Strep (BioConcept, #4-01F00-H, lot. LB04235P).

TMD8 cells = assay: Resazurin cell viability assay in DLBCL cells (TMD8); conditions: Homo sapiens, TMD8, 72 h, TMD8 cells (BTK dependent), 50% growth inhibition, read-out: TMD8 Prol GI50
Method: as §1, §2, §3, §4, §5
TMD8 cells were acquired through a license agreement with Tokyo Medical and Dental University, Japan. Cells are cultivated in MEM Alpha (BioConcept, #1-23F01-I, lot. LB04262P) supplemented with 10% FCS (HyClone, GE #SH30066.03, lot AB217603), 2 mM L-Glutamine (BioConcept, #5-10K50-H, lot. LA03467P), 1% Pen/Strep (BioConcept, #4-01F00-H, lot. LB04235P).

BTK(C481S)-GFP = molecular target: T1, BTK(C481S)-GFP (Homo sapiens, UniProt Q06187+Q96SW2, C481S); assay: BTK(C481S)-GFP protein abundance flow cytometry assay in TMD8 cells; conditions: for BTK (C481S) Amax %: % protein remaining at concentration of maximum degradation; for DC50: concentration at which 50% maximal degradation was observed
T1 construct: with a mutagenesis reaction on pENTR221-BTK (STOP-Leu); CHYSEL (cis-acting hydrolase element, 2A) remnant after GFP; mCherry is split off as a separate protein (C); expressed in transfected cells; host or cells: TMD8 cells, lentiviral transduction with pLenti6-BTK(C481S)-GFP-CHYSEL-mCherry
Method: as §1
BTK(C481S)-GFP Protein Abundance Flow Cytometry Assay in TMD8 Cells:
Degradation of BTK(C481S) was measured in TMD8 cells expressing BTK(C481S)-GFP and mCherry from a stably integrated second generation bicistronic BTK(C481S)-GFP-CHYSEL-mCherry construct. Reduction of the GFP signal measured by flow cytometry served as readout for BTK(C481S) degradation after degrader treatment.

T1 sequence (Q06187 whole entry C481S): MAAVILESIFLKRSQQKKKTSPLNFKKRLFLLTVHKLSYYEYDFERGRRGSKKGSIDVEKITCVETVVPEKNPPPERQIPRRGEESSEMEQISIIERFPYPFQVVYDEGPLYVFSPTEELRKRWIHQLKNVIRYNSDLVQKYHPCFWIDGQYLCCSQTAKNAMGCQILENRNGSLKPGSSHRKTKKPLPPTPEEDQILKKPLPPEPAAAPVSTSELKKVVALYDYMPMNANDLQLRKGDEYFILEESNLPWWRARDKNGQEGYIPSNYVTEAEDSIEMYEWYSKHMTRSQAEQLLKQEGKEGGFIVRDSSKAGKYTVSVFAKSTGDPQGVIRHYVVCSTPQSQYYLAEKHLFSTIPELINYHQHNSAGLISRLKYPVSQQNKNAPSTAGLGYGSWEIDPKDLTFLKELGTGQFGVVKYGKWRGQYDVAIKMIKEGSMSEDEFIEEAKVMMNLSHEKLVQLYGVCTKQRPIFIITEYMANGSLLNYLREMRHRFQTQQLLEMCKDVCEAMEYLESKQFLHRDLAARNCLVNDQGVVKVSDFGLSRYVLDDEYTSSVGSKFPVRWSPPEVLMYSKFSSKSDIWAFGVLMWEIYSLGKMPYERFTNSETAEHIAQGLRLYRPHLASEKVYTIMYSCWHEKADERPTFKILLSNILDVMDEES
T1 sequence (Q96SW2 whole entry): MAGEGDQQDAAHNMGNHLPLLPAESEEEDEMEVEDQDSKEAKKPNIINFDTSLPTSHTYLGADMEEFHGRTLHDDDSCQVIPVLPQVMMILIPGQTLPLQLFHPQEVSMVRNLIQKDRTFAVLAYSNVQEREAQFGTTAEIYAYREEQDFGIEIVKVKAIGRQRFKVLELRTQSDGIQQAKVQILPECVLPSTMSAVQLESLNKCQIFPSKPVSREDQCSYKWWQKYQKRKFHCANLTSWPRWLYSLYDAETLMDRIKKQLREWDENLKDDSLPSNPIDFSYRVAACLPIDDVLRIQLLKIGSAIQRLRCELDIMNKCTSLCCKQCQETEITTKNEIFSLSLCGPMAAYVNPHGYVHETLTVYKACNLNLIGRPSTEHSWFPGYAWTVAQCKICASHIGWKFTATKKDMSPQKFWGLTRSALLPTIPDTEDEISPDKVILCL
T1 sequence (Q16531 whole entry partner): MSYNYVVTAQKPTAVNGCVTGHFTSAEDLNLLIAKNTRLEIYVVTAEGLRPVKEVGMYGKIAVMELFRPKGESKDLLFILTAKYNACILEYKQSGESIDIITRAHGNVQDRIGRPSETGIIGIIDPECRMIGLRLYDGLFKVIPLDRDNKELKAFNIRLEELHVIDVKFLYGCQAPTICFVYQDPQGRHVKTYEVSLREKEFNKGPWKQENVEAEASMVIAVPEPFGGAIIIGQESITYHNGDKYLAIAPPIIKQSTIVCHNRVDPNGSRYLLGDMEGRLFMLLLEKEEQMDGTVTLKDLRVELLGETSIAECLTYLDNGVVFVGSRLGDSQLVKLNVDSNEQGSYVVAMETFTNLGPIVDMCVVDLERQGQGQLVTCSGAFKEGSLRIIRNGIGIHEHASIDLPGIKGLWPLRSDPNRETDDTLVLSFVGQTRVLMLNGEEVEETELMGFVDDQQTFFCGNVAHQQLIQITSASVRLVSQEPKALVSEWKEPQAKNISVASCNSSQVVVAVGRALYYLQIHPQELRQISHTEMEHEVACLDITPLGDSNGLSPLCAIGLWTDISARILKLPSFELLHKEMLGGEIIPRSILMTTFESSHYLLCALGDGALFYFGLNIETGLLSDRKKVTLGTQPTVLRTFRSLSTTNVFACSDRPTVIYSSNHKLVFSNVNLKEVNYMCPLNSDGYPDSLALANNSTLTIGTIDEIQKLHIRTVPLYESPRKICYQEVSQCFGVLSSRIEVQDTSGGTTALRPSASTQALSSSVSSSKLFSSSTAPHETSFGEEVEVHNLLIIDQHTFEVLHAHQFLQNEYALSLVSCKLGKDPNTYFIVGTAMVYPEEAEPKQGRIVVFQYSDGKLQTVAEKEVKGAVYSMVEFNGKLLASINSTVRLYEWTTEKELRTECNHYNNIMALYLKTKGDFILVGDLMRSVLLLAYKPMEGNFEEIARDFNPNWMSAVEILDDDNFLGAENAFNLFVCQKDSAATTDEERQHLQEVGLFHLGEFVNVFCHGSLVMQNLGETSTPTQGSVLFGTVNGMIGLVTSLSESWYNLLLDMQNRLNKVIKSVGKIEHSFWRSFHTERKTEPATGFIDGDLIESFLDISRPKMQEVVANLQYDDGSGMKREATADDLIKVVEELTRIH

| Structure (SMILES) | GI50 (OCI-LY3 cells) [nM] | BTK (C481S) Amax % (BTK(C481S)-GFP) [%] | DC50 (BTK(C481S)-GFP) [nM] | GI50 (TMD8 cells) [nM] |
| --- | --- | --- | --- | --- |
| COc1ccc(C(=O)N2CCC3(CCN(Cc4ccc(-c5cc6c(-c7cc(F)cc(NC(=O)N8C[C@H](CC(C)C)[C@@H](O)C8)c7C)ncnc6[nH]5)cc4)CC3)CC2)cc1N1CCC(=O)NC1=O [Compound 6, (3R,4S)—N-(3-(6-(4-((9-(3-(2,4-Dioxotetrahydropyrimidin-1(2H)-yl)-4-methoxybenzoyl)-3,9-diazaspiro[5.5]undecan-3-yl)methyl)phenyl)-7H-pyrrolo[2,3-d]pyrimidin-4-yl)-5-fluoro-2-methylphenyl)-3-hydroxy-4-isobutylpyrrolidine-1-carboxamide] | 9920 | 2.1 | 0.7 | 0.45 |
| COc1ccc(C(=O)N2CCC(OC3CCN(CCc4ccc(-c5cc6c(-c7cc(F)cc(NC(=O)N8C[C@H](CC(C)C)[C@@H](O)C8)c7C)ncnc6[nH]5)cc4)CC3)CC2)cc1N1CCC(=O)NC1=O [Compound 13, (3R,4S)—N-(3-(6-(4-(2-(4-((1-(3-(2,4-Dioxotetrahydropyrimidin-1(2H)-yl)-4-methoxybenzoyl)piperidin-4-yl)oxy)piperidin-1-yl)ethyl)phenyl)-7H-pyrrolo[2,3-d]pyrimidin-4-yl)-5-fluoro-2-methylphenyl)-3-hydroxy-4-isobutylpyrrolidine-1-carboxamide] | 9220 | 1.1 | 0.2 | 0.24 |
| COc1ccc(C(=O)N2CCC(CN3CCN(Cc4ccc(-c5cc6c(-c7cc(F)cc(NC(=O)N8C[C@H](CC(C)C)[C@@H](O)C8)c7C)ncnc6[nH]5)cc4)CC3)CC2)cc1N1CCC(=O)NC1=O [Compound 12, (3R,4S)—N-(3-(6-(4-((4-((1-(3-(2,4-Dioxotetrahydropyrimidin-1(2H)-yl)-4-methoxybenzoyl)piperidin-4-yl)methyl)piperazin-1-yl)methyl)phenyl)-7H-pyrrolo[2,3-d]pyrimidin-4-yl)-5-fluoro-2-methylphenyl)-3-hydroxy-4-isobutylpyrrolidine-1-carboxamide] | > 10000 | 3.0 | 0.3 | 0.3 |
| COc1ccc(C(=O)N2CCC(OC3CCN(Cc4ccc(-c5cc6c(-c7cc(F)cc(NC(=O)N8C[C@H](CC(C)C)[C@@H](O)C8)c7C)ncnc6[nH]5)cc4)CC3)CC2)cc1N1CCC(=O)NC1=O [Compound 8, (3R,4S)—N-(3-(6-(4-((4-((1-(3-(2,4-Dioxotetrahydropyrimidin-1(2H)-yl)-4-methoxybenzoyl)piperidin-4-yl)oxy)piperidin-1-yl)methyl)phenyl)-7H-pyrrolo[2,3-d]pyrimidin-4-yl)-5-fluoro-2-methylphenyl)-3-hydroxy-4-isobutylpyrrolidine-1-carboxamide] | > 10000 | 2.7 | 0.4 | 0.4 |
| COc1ccc(C(=O)N2CCC(OCCN3CCN(Cc4ccc(-c5cc6c(-c7cc(F)cc(NC(=O)N8C[C@H](CC(C)C)[C@@H](O)C8)c7C)ncnc6[nH]5)cc4)CC3)CC2)cc1N1CCC(=O)NC1=O [Compound 2, (3R,4S)—N-(3-(6-(4-((4-(2-((1-(3-(2,4-Dioxotetrahydropyrimidin-1 (2H)-yl)-4-methoxybenzoyl)piperidin-4-yl)oxy)ethyl)piperazin-1-yl)methyl)phenyl)-7H-pyrrolo[2,3-d]pyrimidin-4-yl)-5-fluoro-2-methylphenyl)-3-hydroxy-4-isobutylpyrrolidine-1-carboxamide] | 7730 | 2.0 | 0.4 | 0.31 |

Molecules with a lower GI50 (OCI-LY3 cells), results first:

| GI50 (OCI-LY3 cells) [nM] | BTK (C481S) Amax % (BTK(C481S)-GFP) [%] | DC50 (BTK(C481S)-GFP) [nM] | Structure (SMILES) | GI50 (TMD8 cells) [nM] |
| --- | --- | --- | --- | --- |
| 6680 | 2.1 | 0.4 | COc1ccc(C(=O)N2CCC(CCN3CCC(OCc4ccc(-c5cc6c(-c7cc(F)cc(NC(=O)N8C[C@H](CC(C)C)[C@@H](O)C8)c7C)ncnc6[nH]5)cc4)CC3)CC2)cc1N1CCC(=O)NC1=O [Compound 22, (3R,4S)—N-(3-(6-(4-(((1-(2-(1-(3-(2,4-Dioxotetrahydropyrimidin-1 (2H)-yl)-4-methoxybenzoyl)piperidin-4-yl)ethyl)piperidin-4-yl)oxy)methyl)phenyl)-7H-pyrrolo[2,3-d]pyrimidin-4-yl)-5-fluoro-2-methylphenyl)-3-hydroxy-4-isobutylpyrrolidine-1-carboxamide] | 0.23 |
| 3510 | 2.2 | 0.2 | COc1ccc(C(=O)N2CCC(CN3CCC(Oc4ccc(-c5cc6c(-c7cc(F)cc(NC(=O)N8C[C@H](CC(C)C)[C@@H](O)C8)c7C)ncnc6[nH]5)cc4)CC3)CC2)cc1N1CCC(=O)NC1=O [Compound 11, (3R,4S)—N-(3-(6-(4-((1-((1-(3-(2,4-Dioxotetrahydropyrimidin-1 (2H)-yl)-4-methoxybenzoyl)piperidin-4-yl)methyl)piperidin-4-yl)oxy)phenyl)-7H-pyrrolo[2,3-d]pyrimidin-4-yl)-5-fluoro-2-methylphenyl)-3-hydroxy-4-isobutylpyrrolidine-1-carboxamide] | 0.18 |
| 7120 | 3.6 | 41 | COc1ccc(C(=O)N2CCC3(CCN(Cc4ccc(-c5cc6c(-c7cc(F)cc(NC(=O)N8C[C@@H](CC(C)C)[C@H](O)C8)c7C)ncnc6[nH]5)cc4)CC3)CC2)cc1N1CCC(=O)NC1=O [Compound 1, (3S,4R)—N-(3-(6-(4-((9-(3-(2,4-Dioxotetrahydropyrimidin-1(2H)-yl)-4-methoxybenzoyl)-3,9-diazaspiro[5.5]undecan-3-yl)methyl)phenyl)-7H-pyrrolo[2,3-d]pyrimidin-4-yl)-5-fluoro-2-methylphenyl)-3-hydroxy-4-isobutylpyrrolidine-1-carboxamide] | 14 |
| 7250 | 3.0 | 0.9 | COc1ccc(C(=O)N2CCC3(CCN(CCc4ccc(-c5cc6c(-c7cc(F)cc(NC(=O)N8C[C@H](CC(C)C)[C@@H](O)C8)c7C)ncnc6[nH]5)cc4)CC3)CC2)cc1N1CCC(=O)NC1=O [Compound 15, (3R,4S)—N-(3-(6-(4-(2-(9-(3-(2,4-Dioxotetrahydropyrimidin-1(2H)-yl)-4-methoxybenzoyl)-3,9-diazaspiro[5.5]undecan-3-yl)ethyl)phenyl)-7H-pyrrolo[2,3-d]pyrimidin-4-yl)-5-fluoro-2-methylphenyl)-3-hydroxy-4-isobutylpyrrolidine-1-carboxamide] | 0.22 |
